In ChEMBL document CHEMBL1201862, “PubChem BioAssay data set” (2004):
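Each compound was tested at five concentrations against cells in 96-well plates for 48 hours. GI50 is the concentration that inhibits growth by half.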 Activity calls are given as the source filed them. Cut-off read from the data, not from the text of the source: active = GI50 up to about 1.1 µM and inactive = higher.

Tests used:
Experiment in all cases: inhibition of tumour cell growth, NCI panel, 48 h
MCF7 = system: MCF7
OVCAR-3 = system: OVCAR-3
HOP-92 = system: HOP-92
Malme-3M = system: Malme-3M
Hs-578T = system: Hs-578T
HOP-62 = system: HOP-62
MDA-MB-231 = system: MDA-MB-231
T47D = system: T47D
BT-549 = system: BT-549
CCRF-CEM = system: CCRF-CEM
UACC-257 = system: UACC-257
MDA-N = system: MDA-N
OVCAR-4 = system: OVCAR-4
OVCAR-5 = system: OVCAR-5
PC-3 = system: PC-3
K562 = system: K562
DMS-114 = system: DMS-114
DLD-1 = system: DLD-1
KM-20L2 = system: KM-20L2
SNB-78 = system: SNB-78

Structure (SMILES) | GI50 (MCF7) | GI50 (OVCAR-3) | GI50 (HOP-92) | GI50 (Malme-3M) | GI50 (Hs-578T) | GI50 (HOP-62) | GI50 (MDA-MB-231) | GI50 (T47D) | GI50 (BT-549) | GI50 (CCRF-CEM) | GI50 (UACC-257) | GI50 (MDA-N) | GI50 (OVCAR-4) | GI50 (OVCAR-5) | GI50 (PC-3) | GI50 (K562) | GI50 (DMS-114) | GI50 (DLD-1) | GI50 (KM-20L2) | GI50 (SNB-78)
c1ccc2cc(-c3cc(-c4cc(-c5ccc6ccccc6c5)on4)no3)ccc2c1 | > 100 µM (inactive) | > 100 µM (inactive) | > 100 µM (inactive) | > 100 µM (inactive) | 53.6 µM (inactive) | > 100 µM (inactive) | > 100 µM (inactive) | > 100 µM (inactive) | > 100 µM (inactive) | 13.6 µM (inactive) | > 100 µM (inactive) | > 100 µM (inactive) | > 100 µM (inactive) | > 100 µM (inactive) | > 100 µM (inactive) | > 100 µM (inactive) | – | – | – | –
NS(=O)(=O)c1ccc(NC2(C(=O)O)CCCC2)cc1 | > 100 µM (inactive) | > 100 µM (inactive) | > 100 µM (inactive) | > 100 µM (inactive) | > 100 µM (inactive) | > 100 µM (inactive) | > 100 µM (inactive) | > 100 µM (inactive) | > 100 µM (inactive) | > 100 µM (inactive) | > 100 µM (inactive) | > 100 µM (inactive) | > 100 µM (inactive) | > 100 µM (inactive) | > 100 µM (inactive) | > 100 µM (inactive) | – | – | – | –
O=C(CN1CCCCC1)Nc1ccc2sc3ccccc3c(=O)c2n1 | 19.5 µM (inactive) | 31.5 µM (inactive) | 15.1 µM (inactive) | 32.1 µM (inactive) | 18.8 µM (inactive) | 13.8 µM (inactive) | 18.5 µM (inactive) | 27.2 µM (inactive) | 19.3 µM (inactive) | 5.92 µM (inactive) | 18.2 µM (inactive) | 13.4 µM (inactive) | 30.1 µM (inactive) | 18.2 µM (inactive) | 10.9 µM (inactive) | 5.36 µM (inactive) | – | – | – | –
Nc1ccc(S(=O)(=O)Nc2nc3ccccc3nc2N2CCCCCC2)cc1 | 38.9 µM (inactive) | 18.3 µM (inactive) | 23.4 µM (inactive) | 34.4 µM (inactive) | 37.2 µM (inactive) | 20 µM (inactive) | 26.9 µM (inactive) | 22.9 µM (inactive) | 7.23 µM (inactive) | 33.5 µM (inactive) | 32.9 µM (inactive) | 32.5 µM (inactive) | 17.1 µM (inactive) | 38.5 µM (inactive) | 29.8 µM (inactive) | 17.6 µM (inactive) | – | – | – | –
CCOC(=O)n1c2ccccc2c2c(O)c(OC)c3c(c21)C(=O)NC3=O | 54.3 µM (inactive) | 22.2 µM (inactive) | 76 µM (inactive) | 35.9 µM (inactive) | 59.4 µM (inactive) | 23 µM (inactive) | 20.6 µM (inactive) | 95.1 µM (inactive) | > 100 µM (inactive) | 13.1 µM (inactive) | 45.8 µM (inactive) | > 100 µM (inactive) | 44.6 µM (inactive) | 50.9 µM (inactive) | 45.8 µM (inactive) | 40.9 µM (inactive) | – | – | – | –
CCOc1c(OC)cc(CNNc2nccs2)cc1OC | > 100 µM (inactive) | > 100 µM (inactive) | 67.6 µM (inactive) | 82.2 µM (inactive) | > 100 µM (inactive) | > 100 µM (inactive) | 94.2 µM (inactive) | 11.7 µM (inactive) | 41.5 µM (inactive) | > 100 µM (inactive) | 20.1 µM (inactive) | > 100 µM (inactive) | > 100 µM (inactive) | 4.57 µM (inactive) | 41.9 µM (inactive) | 24 µM (inactive) | – | – | – | –
Cc1nc(-c2cccnc2)sc1C(=O)/C=C/c1cccc([N+](=O)[O-])c1 | – | > 100 µM (inactive) | > 100 µM (inactive) | > 100 µM (inactive) | – | > 100 µM (inactive) | – | – | – | > 100 µM (inactive) | > 100 µM (inactive) | – | – | > 100 µM (inactive) | – | > 100 µM (inactive) | > 100 µM (inactive) | > 100 µM (inactive) | > 100 µM (inactive) | –
CSC(=S)N/N=C(\C)c1cccc(C)n1 | 0.128 µM (active) | 0.0568 µM (active) | 1.1 µM (active) | 0.809 µM (active) | 6.14 µM (inactive) | 0.953 µM (active) | 1.85 µM (inactive) | 2.46 µM (inactive) | 5.19 µM (inactive) | 0.0124 µM (active) | 0.92 µM (active) | 0.925 µM (active) | 0.497 µM (active) | 5.77 µM (inactive) | 0.265 µM (active) | 0.042 µM (active) | – | – | – | –
CC(=O)OCC1OC(O[C@@H]2C[C@H]3C(C)(C)[C@@H](OC(C)=O)CC[C@]3(C)[C@H]3CC[C@]45C[C@]4(CC[C@H]5[C@@H](C)C[C@@H](O)[C@H](O)C(C)(C)F)[C@@]32C)C(O)C(O)C1O (stereo partly drawn) | 12.6 µM (inactive) | 30.1 µM (inactive) | 1.93 µM (inactive) | 1.71 µM (inactive) | 1.84 µM (inactive) | 50 µM (inactive) | 25.8 µM (inactive) | > 100 µM (inactive) | 1.72 µM (inactive) | 1.21 µM (inactive) | 7.57 µM (inactive) | 1.63 µM (inactive) | 65.9 µM (inactive) | 1.47 µM (inactive) | 10.6 µM (inactive) | 1.6 µM (inactive) | – | – | – | –
CCO/N=[N+](\[O-])N(CC)CC | – | > 100 µM (inactive) | > 100 µM (inactive) | – | – | > 100 µM (inactive) | – | – | – | > 100 µM (inactive) | > 100 µM (inactive) | – | – | > 100 µM (inactive) | – | > 100 µM (inactive) | – | – | > 100 µM (inactive) | > 100 µM (inactive)
O=C1C(c2ccccc2)=[N+]([O-])c2cc([N+](=O)[O-])ccc21 | – | 18.2 µM (inactive) | 30.5 µM (inactive) | 20.6 µM (inactive) | – | > 100 µM (inactive) | – | – | – | 8.93 µM (inactive) | 18.5 µM (inactive) | – | – | 69.8 µM (inactive) | – | 22.8 µM (inactive) | 14.3 µM (inactive) | 21.6 µM (inactive) | 23.5 µM (inactive) | –
C=CCCC(OCOCCOC)c1cc(C)c(O[Si](C)(C)C(C)(C)C)c(C)c1 (stereo not drawn) | – | 13.6 µM (inactive) | – | 19.6 µM (inactive) | – | 18.7 µM (inactive) | – | – | – | 13.3 µM (inactive) | 4.58 µM (inactive) | – | – | 17 µM (inactive) | – | 8.05 µM (inactive) | 11.7 µM (inactive) | – | 13.2 µM (inactive) | > 100 µM (inactive)
Cn1nc2ccc3nccc(NCCNCCCl)c3c2n1 | – | > 100 µM (inactive) | > 100 µM (inactive) | > 100 µM (inactive) | – | > 100 µM (inactive) | – | – | – | > 100 µM (inactive) | – | – | > 100 µM (inactive) | > 100 µM (inactive) | – | > 100 µM (inactive) | > 100 µM (inactive) | > 100 µM (inactive) | > 100 µM (inactive) | –
O=S1(=O)OCCOS(=O)(=O)C1Cl | – | > 100 µM (inactive) | > 100 µM (inactive) | > 100 µM (inactive) | – | > 100 µM (inactive) | – | – | – | > 100 µM (inactive) | > 100 µM (inactive) | – | > 100 µM (inactive) | – | – | > 100 µM (inactive) | > 100 µM (inactive) | > 100 µM (inactive) | – | > 100 µM (inactive)
COc1c(Cl)nc2ccccc2c1N=[N+]=[N-] | > 100 µM (inactive) | > 100 µM (inactive) | 22.2 µM (inactive) | > 100 µM (inactive) | 28.3 µM (inactive) | 39.7 µM (inactive) | 77.1 µM (inactive) | 85.7 µM (inactive) | 19.8 µM (inactive) | 88.9 µM (inactive) | > 100 µM (inactive) | > 100 µM (inactive) | > 100 µM (inactive) | > 100 µM (inactive) | 46 µM (inactive) | 83.9 µM (inactive) | – | – | – | –
O=C(N/N=C(\c1nc2ccc(Cl)cc2nc1O)C(O)c1ccccc1Cl)c1ccncc1 (stereo not drawn) | – | > 100 µM (inactive) | > 100 µM (inactive) | > 100 µM (inactive) | – | – | – | – | – | > 100 µM (inactive) | > 100 µM (inactive) | – | > 100 µM (inactive) | > 100 µM (inactive) | – | > 100 µM (inactive) | > 100 µM (inactive) | > 100 µM (inactive) | > 100 µM (inactive) | –
COc1ccc(/C(=N/O)C(c2ccc(OC)cc2)C2C(=O)Oc3ccccc32)cc1 (stereo not drawn) | – | – | 16.3 µM (inactive) | 63.1 µM (inactive) | – | – | – | – | – | > 100 µM (inactive) | 34.7 µM (inactive) | – | 48.6 µM (inactive) | 12.7 µM (inactive) | – | 71.4 µM (inactive) | 26.6 µM (inactive) | 83.4 µM (inactive) | – | > 100 µM (inactive)
O=C1OC(=O)C2C3C=CC(C12)C1C2C=CC2C31 (stereo not drawn) | – | – | > 100 µM (inactive) | > 100 µM (inactive) | – | > 100 µM (inactive) | – | – | – | > 100 µM (inactive) | > 100 µM (inactive) | – | > 100 µM (inactive) | > 100 µM (inactive) | – | > 100 µM (inactive) | – | – | > 100 µM (inactive) | –
COC(=O)CC(C(C(=O)OCc1ccccc1)C(C)O)N1C(=O)OCC1c1ccccc1 (stereo not drawn) | – | 93.5 µM (inactive) | – | > 100 µM (inactive) | – | > 100 µM (inactive) | – | – | – | 49 µM (inactive) | 75.7 µM (inactive) | – | 84.1 µM (inactive) | – | – | 34.4 µM (inactive) | 46.9 µM (inactive) | 60.4 µM (inactive) | 83.8 µM (inactive) | –
Brc1ccc2c(-c3csc(-c4c[nH]c5cc(Br)ccc45)n3)c[nH]c2c1 | 11.8 µM (inactive) | 52.1 µM (inactive) | 31.1 µM (inactive) | 28.4 µM (inactive) | 23 µM (inactive) | 37.2 µM (inactive) | 21 µM (inactive) | 20.2 µM (inactive) | > 64.1 µM (inactive) | 10.2 µM (inactive) | > 65.9 µM (inactive) | 5.43 µM (inactive) | 31 µM (inactive) | 26.6 µM (inactive) | 23.7 µM (inactive) | 4.75 µM (inactive) | – | – | – | –
